# Assay: In vivo determination of metabolites in urine and feces (HRMS)
# Design: species or system athymic nude mice
# Method: To elucidate the in vivo activation mechanism of the H2O2-responsive prodrugs 10a and 10b, we investigated their metabolic fate in a xenograft mouse model. MDA-MB-468 tumor-bearing athymic nude mice received an intraperitoneal injection of a 1:1 mixture of 10a (nondeuterated, d 0) and 10b (deuterated, d 5) at equimolar doses (15 mg/kg each; total dose: 30 mg/kg). […] These end-products are consistent with a pathway initiated by H2O2-triggered oxidative deboronation of the boronic acid moiety in 10a/10b to yield phenol intermediates 11a/11b, which can undergo either hydrolysis to alcohols 12a/12b followed by N-demethylation, or direct N-demethylation to 13a/13b (Scheme ). The resulting 13a/13b serve as substrates for UDP-glucuronosyltransferase (UGT)-catalyzed conjugation with uridine diphosphate glucuronic acid, ultimately forming glucuronide conjugates 14a and 14b (Figure and Scheme ). Although intermediates 11a,b-13a,b were not detected in vivo, likely due to their rapid turnover and concentrations below the sensitivity of our LC–MS method, the proposed sequence is strongly supported by complementary cell-culture metabolism studies in which two key intermediates (11a,b and 12a,b) were observed (Figures S8 and S9). Detection of both isotopically labeled and unlabeled metabolites therefore provides robust evidence for H2O2-mediated oxidative deboronation in vivo, with the in vitro findings offering additional mechanistic confirmation.
# Eight-week-old female athymic nude mice (immunodeficient) were anesthetized with isoflurane and subcutaneously inoculated in the flank with 7.5 × 10^6 MDA-MB-468 cells in 100 μL of a 1:1 mixture of Matrigel and Dulbecco’s Modified Eagle Medium (DMEM). Cells were sourced from the American Type Culture Collection (ATCC) and certified free of bloodborne pathogens. Mice were monitored daily for tumor development and weighed weekly. Upon establishment of palpable xenografts (typically one-week postinoculation), animals were randomized into treatment (n = 3) and control (n = 3) groups. For metabolite profiling, mice were individually housed in Labsand-lined cages (Labsand purchased from BrainTree Scientific, inc.). The treatment group received an IP injection of a 1:1 mixture of compounds 10a (d 0) and 10b (d 5) (100 μL) at a combined dose of […], formulated in DMSO/PBS (1×):PEG400 at a ratio of 2:19:19. The control group received the corresponding vehicle (PBS/PEG400/DMSO, 19:19:2). Food and water were provided ad libitum. Urine and Feces were collected separately at two intervals: 0–24 h and 24–48 h. All collected samples were subsequently stored in −80 °C.
# Fecal samples (0.4 g) were thawed on ice from −80 °C. The feces were mixed and homogenized with a pestle in 10 mL centrifuge tube with LCMS grade MeOH (2 mL), then centrifuged for 5 min at 10,000g. The supernatant was transferred to a separate 2 mL centrifuge tube and dried. The resulting feces were subjected to SPE C-18 (Supelco Discovery DSC-18Lt SPE Tube) by initially using 5 mL 18 LCMS grade water and subsequently eluted with LCMS grade MeOH. The organic eluant was collected and dried. The resulting feces mixture was filtered by size exclusion (Amicon Ultra Centrifugal Filter, 3 kDa MWCO). Then the solution was transferred to a sample vial with 300 μL insert and analyzed by Shimadzu HRMS 9030 Q-TOF. Urine samples were thawed on ice from −80 °C, vortexed for 5 s and blended in aliquots of 20 μL MeCN. The samples were vortexed for 15 s and centrifuged for 10 min at 10,000g. The supernatant was transferred to a clean microcentrifuge tube and diluted 10× with 80:20 H2O/MeCN. The resulting solution was filtered by size exclusion (Amicon Ultra Centrifugal Filter, 3 kDa MWCO) at 11k × g.
# 3. In vivo determination of metabolites from Xenograft models
# Table S1. In vivo metabolites of 10a and 10b and HPLC retention time (Rt).a
# 0 – 24 h (R t/min) 24 – 48 h (R t/min)
# Phase II metabolite urine feces urine feces
# glucoside <LOD <LOD <LOD <LOD […]
# [1] = urine 0–24 h after IP 1:1 mixture of 10a and 10b, total dose 30 mg/kg, HRMS
SMILES,"phase II metabolite in feces (feces 0–24 h, Table S1)","phase II metabolite in feces (feces 24–48 h, Table S1)",phase II metabolite in urine [1],"phase II metabolite in urine (urine 24–48 h, Table S1)"
CCc1cc(N)ccc1OC1OC(C(=O)O)C(O)C(O)C1O (centres unmarked) [Compound 14a],< LOD,< LOD,presence,< LOD
[2H]C([2H])([2H])C([2H])([2H])c1cc(N)ccc1OC1OC(C(=O)O)C(O)C(O)C1O (centres unmarked) [Compound 14b],< LOD,< LOD,presence,< LOD

# From paper PMC12703749, “H2O2–Responsive Anticancer Prodrug: Synthesis, Precision Deuteration in Search of In Vivo Metabolites, and Activation Pathway” (Journal of Medicinal Chemistry, 2025)
